Data taken from the NIST ThermoML archive (doi:10.1016/j.jct.2009.05.004).

Test: mn = molality of the nth substance listed, in mol/kg
Conditions: Liquid, Vibrating tube method

[Br-].[Br-].[Zn+2] [zinc bromide] + CCO
Conditions | mass density [kg/m3]
373.14 K, 19874 kPa, m1 = 0.9305 | 872.91
373.14 K, 24846 kPa, m1 = 1.887 | 1005.15
373.14 K, 24985 kPa, m1 = 0.05681 | 753.48
373.14 K, 25624 kPa, m1 = 0.3043 | 790.48
373.14 K, 34851 kPa, m1 = 0.3043 | 799.55
373.14 K, 39921 kPa, m1 = 0.05681 | 767.81
373.15 K, 1032 kPa, m1 = 0.05681 | 723.97
373.15 K, 1228 kPa, m1 = 0.3043 | 761.13
373.15 K, 1745 kPa, m1 = 1.49 | 926.45
373.15 K, 4944 kPa, m1 = 0.4384 | 785.45
373.15 K, 5301 kPa, m1 = 1.49 | 931.02
373.15 K, 9796 kPa, m1 = 0.1696 | 752.88
373.15 K, 10025 kPa, m1 = 0.3043 | 772.61
373.15 K, 10059 kPa, m1 = 1.49 | 936.9
373.15 K, 14641 kPa, m1 = 0.1696 | 758.82
373.15 K, 14690 kPa, m1 = 0.9305 | 867.04
373.15 K, 14903 kPa, m1 = 0.4384 | 797.84
373.15 K, 15214 kPa, m1 = 1.49 | 942.98
373.15 K, 15627 kPa, m1 = 0.05681 | 742.91
373.15 K, 19954 kPa, m1 = 1.49 | 948.31
373.15 K, 20147 kPa, m1 = 0.3043 | 784.56
373.15 K, 24995 kPa, m1 = 0.9305 | 878.38
373.15 K, 25487 kPa, m1 = 1.49 | 954.2
373.15 K, 29987 kPa, m1 = 1.49 | 958.73
373.15 K, 30014 kPa, m1 = 0.05681 | 758.65
373.15 K, 34798 kPa, m1 = 0.4384 | 818.78
373.15 K, 35026 kPa, m1 = 1.49 | 963.54
373.15 K, 35841 kPa, m1 = 0.05681 | 764.21
373.15 K, 39669 kPa, m1 = 0.1696 | 784.45
373.15 K, 39689 kPa, m1 = 0.4384 | 823.15
373.15 K, 39845 kPa, m1 = 0.3043 | 804
373.15 K, 39954 kPa, m1 = 1.49 | 967.95
373.16 K, 5415 kPa, m1 = 0.3043 | 766.72
373.16 K, 10024 kPa, m1 = 0.05681 | 735.99
373.16 K, 15428 kPa, m1 = 0.3043 | 779.16
373.16 K, 29954 kPa, m1 = 0.3043 | 794.87
373.16 K, 34801 kPa, m1 = 0.1696 | 780.13
373.16 K, 34880 kPa, m1 = 1.887 | 1014.97
373.16 K, 34946 kPa, m1 = 0.9305 | 888.07
373.17 K, 1840 kPa, m1 = 0.9305 | 851.03
373.17 K, 5196 kPa, m1 = 0.9305 | 855.41
373.17 K, 9909 kPa, m1 = 0.9305 | 861.33
373.17 K, 19733 kPa, m1 = 0.1696 | 764.71
373.17 K, 19793 kPa, m1 = 0.4384 | 803.46
373.17 K, 20061 kPa, m1 = 0.05681 | 748.07
373.17 K, 29790 kPa, m1 = 0.9305 | 883.2
373.17 K, 39725 kPa, m1 = 1.887 | 1019.24
373.17 K, 39848 kPa, m1 = 0.9305 | 892.38
393.11 K, 5006 kPa, m1 = 0.1696 | 724.69
393.12 K, 5021 kPa, m1 = 1.887 | 958.47
393.12 K, 5106 kPa, m1 = 0.9305 | 833.37
393.12 K, 20028 kPa, m1 = 0.1696 | 745.51
393.12 K, 20063 kPa, m1 = 0.4384 | 784.5
393.12 K, 25074 kPa, m1 = 0.4384 | 790.6
393.12 K, 34785 kPa, m1 = 1.887 | 995.67
393.12 K, 34930 kPa, m1 = 0.4384 | 801.35
393.12 K, 39767 kPa, m1 = 1.887 | 1000.55
393.13 K, 9820 kPa, m1 = 0.4384 | 770.68
393.13 K, 19900 kPa, m1 = 1.887 | 978.73
393.13 K, 30105 kPa, m1 = 0.9305 | 865.29
393.13 K, 39972 kPa, m1 = 0.4384 | 806.21
393.14 K, 1801 kPa, m1 = 0.9305 | 828.39
393.14 K, 5624 kPa, m1 = 0.3043 | 745.3
393.14 K, 9870 kPa, m1 = 0.9305 | 840.24
393.14 K, 14926 kPa, m1 = 0.4384 | 777.8
393.14 K, 15321 kPa, m1 = 0.05681 | 722.2
393.14 K, 19767 kPa, m1 = 0.9305 | 853.32
393.14 K, 24945 kPa, m1 = 0.3043 | 771.16
393.14 K, 29892 kPa, m1 = 0.1696 | 757.28
393.14 K, 29921 kPa, m1 = 0.05681 | 740.47
393.14 K, 29972 kPa, m1 = 0.4384 | 796.15
393.15 K, 1241 kPa, m1 = 0.05681 | 701.02
393.15 K, 1627 kPa, m1 = 0.3043 | 739.2
393.15 K, 1798 kPa, m1 = 1.887 | 953.48
393.15 K, 1921 kPa, m1 = 1.49 | 903.69
393.15 K, 5026 kPa, m1 = 1.49 | 908.13
393.15 K, 10025 kPa, m1 = 0.3043 | 751.72
393.15 K, 10167 kPa, m1 = 0.1696 | 732.24
393.15 K, 10215 kPa, m1 = 0.05681 | 714.93
393.15 K, 10412 kPa, m1 = 1.49 | 915.55
393.15 K, 15026 kPa, m1 = 1.49 | 921.63
393.15 K, 19932 kPa, m1 = 0.05681 | 728.38
393.15 K, 20215 kPa, m1 = 1.49 | 928.15
393.15 K, 24815 kPa, m1 = 0.9305 | 859.38
393.15 K, 24872 kPa, m1 = 1.887 | 984.66
393.15 K, 25654 kPa, m1 = 1.49 | 934.64
393.15 K, 29841 kPa, m1 = 0.3043 | 776.76
393.15 K, 29885 kPa, m1 = 1.887 | 990.35
393.15 K, 29954 kPa, m1 = 1.49 | 939.52
393.15 K, 35014 kPa, m1 = 1.49 | 944.97
393.15 K, 39824 kPa, m1 = 0.05681 | 750.71
393.15 K, 39865 kPa, m1 = 0.3043 | 787.01
393.15 K, 39921 kPa, m1 = 1.49 | 949.96
393.15 K, 39924 kPa, m1 = 0.1696 | 767.7
393.16 K, 1957 kPa, m1 = 0.1696 | 720.03
393.16 K, 5064 kPa, m1 = 0.05681 | 707.12
393.16 K, 14857 kPa, m1 = 0.1696 | 738.74
393.16 K, 15924 kPa, m1 = 0.3043 | 759.83
393.16 K, 24739 kPa, m1 = 0.1696 | 751.32
393.16 K, 25067 kPa, m1 = 0.05681 | 734.81
393.16 K, 34854 kPa, m1 = 0.3043 | 782.09
393.16 K, 34855 kPa, m1 = 0.1696 | 762.63
393.16 K, 34890 kPa, m1 = 0.9305 | 870.24
393.16 K, 35621 kPa, m1 = 0.05681 | 746.57
393.16 K, 39922 kPa, m1 = 0.9305 | 875.04
393.17 K, 4784 kPa, m1 = 0.4384 | 763.23
393.17 K, 14838 kPa, m1 = 0.9305 | 847.01
393.17 K, 14975 kPa, m1 = 1.887 | 972.19
393.17 K, 19958 kPa, m1 = 0.3043 | 765.06
393.18 K, 10012 kPa, m1 = 1.887 | 965.38
393.19 K, 1568 kPa, m1 = 0.4384 | 758.24
